Test results reported in ChEMBL document CHEMBL1201862, “PubChem BioAssay data set” (2004).
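Growth conditions: 96-well plates. Treatment: test compound, 48 hours, 5 concentrations. Analysis: linear interpolation between bracketing concentrations; unreached endpoints set to highest concentration. Here, GI50 denotes the concentration required for 50% inhibition of growth.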 Activity calls are given as the source filed them. Rule as the data show it: active = GI50 up to about 1.1 µM and inactive = higher. Where a SMILES comes first, the peptide text is derived from it. [ ]: non-standard residue; d: D form. The star is where a group is joined. ξ: configuration not given here. NMeF = CN[CH](Cc1ccccc1)C(=O)O; ξNMe2Val = CC(C)C(C(=O)*)N(C)C; NMeV = CN[CH](C(=O)O)C(C)C; OtBu = CC(C)(C)O*

Legend:
Assay in all cases: NCI-60 cell line screen, 48 h
CAKI-1 = system: CAKI-1
NCI-H522 = system: NCI-H522
UACC-62 = system: UACC-62
SF-539 = system: SF-539
RPMI-8226 = system: RPMI-8226
SK-MEL-2 = system: SK-MEL-2
U-251 = system: U-251
K562 = system: K562
NCI-H460 = system: NCI-H460
COLO 205 = system: COLO 205
HOP-92 = system: HOP-92
MOLT-4 = system: MOLT-4
SF-295 = system: SF-295
SR = system: SR
TK-10 = system: TK-10
SW-620 = system: SW-620
LOX IMVI = system: LOX IMVI

Row | SMILES | GI50 (CAKI-1) | GI50 (NCI-H522) | GI50 (UACC-62) | GI50 (SF-539) | GI50 (RPMI-8226) | GI50 (SK-MEL-2) | GI50 (U-251) | GI50 (K562) | GI50 (NCI-H460) | GI50 (COLO 205) | GI50 (HOP-92) | GI50 (MOLT-4) | GI50 (SF-295) | GI50 (SR) | GI50 (TK-10) | GI50 (SW-620) | GI50 (LOX IMVI)
1 | Cc1nc(N)nc(CCC(=O)Nc2cccc(C(F)(F)F)c2)c1-c1ccc(Cl)cc1 | > 100 µM (inactive) | > 100 µM (inactive) | > 100 µM (inactive) | > 100 µM (inactive) | > 100 µM (inactive) | > 100 µM (inactive) | > 100 µM (inactive) | > 100 µM (inactive) | > 100 µM (inactive) | > 100 µM (inactive) | > 100 µM (inactive) | > 100 µM (inactive) | > 100 µM (inactive) | 21.6 µM (inactive) | > 100 µM (inactive) | > 100 µM (inactive) | –
2 | COC(=O)C12C3C4C1C1C2C3C41I (stereo not given) | > 100 µM (inactive) | – | > 100 µM (inactive) | > 100 µM (inactive) | > 100 µM (inactive) | – | > 100 µM (inactive) | > 100 µM (inactive) | > 100 µM (inactive) | > 100 µM (inactive) | > 100 µM (inactive) | > 100 µM (inactive) | > 100 µM (inactive) | – | > 100 µM (inactive) | > 100 µM (inactive) | –
3 | NC(=O)N/N=C(\CC1OC(=O)c2ccccc21)c1ccc([N+](=O)[O-])cc1 (stereo not given) | 23.6 µM (inactive) | – | 18.4 µM (inactive) | 21.5 µM (inactive) | 31.3 µM (inactive) | 19.4 µM (inactive) | 17.5 µM (inactive) | > 10 µM (inactive) | 39.9 µM (inactive) | 46.8 µM (inactive) | – | 27.7 µM (inactive) | 68.4 µM (inactive) | 32.7 µM (inactive) | > 100 µM (inactive) | 35.7 µM (inactive) | 17 µM (inactive)
4 | CC(=O)NC1=C(NCC(C)C)C(=O)c2ccccc2C1=O | 16.7 µM (inactive) | – | 18 µM (inactive) | 17.3 µM (inactive) | 37.3 µM (inactive) | 26 µM (inactive) | 40.2 µM (inactive) | 15.3 µM (inactive) | 34.7 µM (inactive) | > 100 µM (inactive) | 14.3 µM (inactive) | 29.4 µM (inactive) | 37.9 µM (inactive) | – | 20.7 µM (inactive) | 16.5 µM (inactive) | 15.5 µM (inactive)
5 | CC[C@H]1CNC(=O)CC1CC(=O)OC (stereo not given in full) | > 100 µM (inactive) | > 100 µM (inactive) | > 100 µM (inactive) | > 100 µM (inactive) | – | > 100 µM (inactive) | > 100 µM (inactive) | – | > 100 µM (inactive) | – | – | > 100 µM (inactive) | > 100 µM (inactive) | > 100 µM (inactive) | > 100 µM (inactive) | > 100 µM (inactive) | > 100 µM (inactive)
6 | N#[N+]c1ccccc1Sc1ccc(Cl)cc1 | > 100 µM (inactive) | – | > 100 µM (inactive) | > 100 µM (inactive) | 52.4 µM (inactive) | > 100 µM (inactive) | > 100 µM (inactive) | 75 µM (inactive) | > 100 µM (inactive) | – | – | 64.7 µM (inactive) | > 100 µM (inactive) | – | > 100 µM (inactive) | > 100 µM (inactive) | –
7 | C[C@]12CC(C=O)C(=O)C(O)=C1CC[C@@H]1C2CC[C@@]2(C)C1CC[C@]2(C)O (stereo not given in full) | – | – | 13.8 µM (inactive) | 18.5 µM (inactive) | 16.6 µM (inactive) | 5.02 µM (inactive) | 20.4 µM (inactive) | 25.9 µM (inactive) | 30.3 µM (inactive) | 18.8 µM (inactive) | 16 µM (inactive) | 22.3 µM (inactive) | 27.1 µM (inactive) | – | 38.9 µM (inactive) | 34.3 µM (inactive) | 11.5 µM (inactive)
8 | COc1cc2cnc3c4ccccc4ccc3c2cc1OC | > 100 µM (inactive) | > 100 µM (inactive) | > 100 µM (inactive) | – | > 100 µM (inactive) | > 100 µM (inactive) | > 100 µM (inactive) | > 100 µM (inactive) | > 100 µM (inactive) | > 100 µM (inactive) | – | > 100 µM (inactive) | > 100 µM (inactive) | – | > 100 µM (inactive) | > 100 µM (inactive) | –
9 | O=C1C2[C@@H](C(=O)N1c1ccc(Br)cc1)C13C(=CC2([N+](=O)[O-])[C@@H]2C(=O)N(c4ccc(Br)cc4)C(=O)[C@@H]21)c1ccccc1N3c1ccccc1 (stereo not given in full) | – | > 100 µM (inactive) | – | > 100 µM (inactive) | > 100 µM (inactive) | > 100 µM (inactive) | > 100 µM (inactive) | > 100 µM (inactive) | – | 25.8 µM (inactive) | > 100 µM (inactive) | > 100 µM (inactive) | > 100 µM (inactive) | 83 µM (inactive) | > 100 µM (inactive) | > 100 µM (inactive) | > 100 µM (inactive)
10 | C/C(=C1/CCC/C(=C(/C)c2ccccc2)C1=O)c1ccccc1 | – | 33.6 µM (inactive) | 37.2 µM (inactive) | 62.4 µM (inactive) | 23.9 µM (inactive) | 15.1 µM (inactive) | 25.3 µM (inactive) | 18.3 µM (inactive) | 27.2 µM (inactive) | 65.6 µM (inactive) | 38.8 µM (inactive) | 21.5 µM (inactive) | 38.1 µM (inactive) | 14.6 µM (inactive) | > 100 µM (inactive) | 80 µM (inactive) | 28.8 µM (inactive)
11 | CN(C)/C=N\c1ccn(CCO)c(=O)n1 | – | > 100 µM (inactive) | > 100 µM (inactive) | > 100 µM (inactive) | – | > 100 µM (inactive) | > 100 µM (inactive) | > 100 µM (inactive) | > 100 µM (inactive) | > 100 µM (inactive) | – | > 100 µM (inactive) | – | > 100 µM (inactive) | > 100 µM (inactive) | > 100 µM (inactive) | > 100 µM (inactive)
12 | NCCCSCC(=O)O | > 100 µM (inactive) | > 100 µM (inactive) | > 100 µM (inactive) | > 100 µM (inactive) | > 100 µM (inactive) | > 100 µM (inactive) | > 100 µM (inactive) | > 100 µM (inactive) | – | > 100 µM (inactive) | > 100 µM (inactive) | > 100 µM (inactive) | > 100 µM (inactive) | – | > 100 µM (inactive) | > 100 µM (inactive) | –
13 | CC(C)C(C(=O)N(C)C(Cc1ccccc1)C(=O)N(C)C(C(=O)N(C)C(C(=O)N1CCCC1C(=O)OC(C)(C)C)C(C)C)C(C)C)N(C)C (stereo not given) (ξNMe2Val-[NMeF][NMeV][NMeV]P-OtBu; configuration not given here) | – | 17.4 µM (inactive) | 51.9 µM (inactive) | 26.1 µM (inactive) | 36.8 µM (inactive) | – | > 10 µM (inactive) | 31.6 µM (inactive) | 43.2 µM (inactive) | 35.2 µM (inactive) | – | 13.9 µM (inactive) | 60.8 µM (inactive) | 25.4 µM (inactive) | > 100 µM (inactive) | 43 µM (inactive) | 22.9 µM (inactive)
14 | CCc1cc(Cc2cc(Cl)c(NC(=O)C(=O)C3NC(=O)NC3=O)c(CC)c2)cc(Cl)c1NC(=O)C(=O)C1NC(=O)NC1=O (stereo not given) | > 100 µM (inactive) | – | 46.7 µM (inactive) | 35.1 µM (inactive) | 26.4 µM (inactive) | > 100 µM (inactive) | 17.1 µM (inactive) | 37.2 µM (inactive) | 36.1 µM (inactive) | 57.8 µM (inactive) | > 100 µM (inactive) | 66.5 µM (inactive) | 51.4 µM (inactive) | 37.2 µM (inactive) | > 100 µM (inactive) | 8.47 µM (inactive) | 31.8 µM (inactive)
15 | CC(C)N1CCC2(CC1)NNc1ncccc1-n1cccc12 | > 100 µM (inactive) | > 100 µM (inactive) | – | > 100 µM (inactive) | > 100 µM (inactive) | > 100 µM (inactive) | > 100 µM (inactive) | > 100 µM (inactive) | > 100 µM (inactive) | > 100 µM (inactive) | – | > 100 µM (inactive) | > 100 µM (inactive) | – | > 100 µM (inactive) | > 100 µM (inactive) | > 100 µM (inactive)
16 | CC(C)(C)OC(=O)N1CC(C)(C)N2C(=O)C3(CCCO3)C12 (stereo not given) | > 100 µM (inactive) | > 100 µM (inactive) | > 100 µM (inactive) | > 100 µM (inactive) | 19.5 µM (inactive) | > 100 µM (inactive) | 45.3 µM (inactive) | 58.9 µM (inactive) | > 100 µM (inactive) | > 100 µM (inactive) | > 100 µM (inactive) | > 100 µM (inactive) | > 100 µM (inactive) | – | > 100 µM (inactive) | 14.9 µM (inactive) | > 100 µM (inactive)
17 | CCOC(=O)C1(C(=O)OCC)CC=C(C)CC12C(=O)Nc1ccccc12 (stereo not given) | > 100 µM (inactive) | > 100 µM (inactive) | > 100 µM (inactive) | > 100 µM (inactive) | > 100 µM (inactive) | > 100 µM (inactive) | > 100 µM (inactive) | > 100 µM (inactive) | > 100 µM (inactive) | > 100 µM (inactive) | > 100 µM (inactive) | > 100 µM (inactive) | > 100 µM (inactive) | – | > 100 µM (inactive) | > 100 µM (inactive) | > 100 µM (inactive)
18 | Cc1ccc(S(=O)(=O)N2CCCCC2CCO)cc1 (stereo not given) | > 100 µM (inactive) | 0.0342 µM (active) | > 100 µM (inactive) | > 100 µM (inactive) | > 100 µM (inactive) | > 100 µM (inactive) | > 100 µM (inactive) | > 100 µM (inactive) | > 100 µM (inactive) | > 100 µM (inactive) | > 100 µM (inactive) | > 100 µM (inactive) | > 100 µM (inactive) | > 100 µM (inactive) | > 100 µM (inactive) | > 100 µM (inactive) | –
